These results are taken from patent publication US20260365637A1, “DUAL EZH2-HSP90 INHIBITORS” (TAIPEI MEDICAL UNIVERSITY, priority 2023, published 2026).

SMILES strings stand for the structures.

The test system of data set [1] is GBM cells. Particulars: literature, cited from earlier work.
For data set [2], the system named is brafv600e mutant GBM. The following applies: literature; cited from earlier work.
Data set [3] addresses EZH2 (Core Histone) (Homo sapiens, UniProt Q15910). The data set can be described thus: EZH2 inhibition assay (Reaction Biology Corporation). Type of data set: biochemical. The method, then:
The EZH2 inhibitory ability of the synthesized adduct was assessed by Reaction Biology Corporation, Malvern, PA (http://www.reactionbiology.com).

Data set [4] has as its target HSP90a (Homo sapiens, UniProt P07900). The data set can be described thus: In vitro HSP90 inhibition assay (Reaction Biology Corporation). Type of data set: biochemical. As for the experimental part: The HSP90 inhibitory activity of the synthesized adduct was assessed by Reaction Biology Corporation, Malvern, PA (http://www.reactionbiology.com).
An in-vitro experiment was performed to assess the inhibitory effect of the synthesized adducts on the heat shock protein 90 (HSP90).

The subject of data set [5] is Pt3R cells. The data set can be described thus: Cell viability / cytotoxicity of TMZ-resistant Pt3R cells (CCK8). Type of data set: cell-based, human. Particulars: for IC50: read-out: Cell growth inhibitory effect IC50.
The test system of data set [6] is GBM cell lines. The data set can be described thus: Preliminary screening of cell growth inhibition in GBM cell lines. In kind it is cell-based. The following applies: for cytotoxicity / cell growth inhibition against GBM cell lines: preliminary screening. From the text:
As such, Hsp90 is an ATP-dependent molecular chaperone that regulates protein conformation, stability, and degradation. Several HSP90 inhibitors have been evaluated for their anti-GBM efficacy at a preliminary level. […] Reduction in the mRNA and protein expression of EGFR, PDGFRA, CDK4, and NF1 in heterogeneous GBM cells was also evidenced in treatment with AUY922.

Sequence of EZH2 (Core Histone) (Q15910 whole entry): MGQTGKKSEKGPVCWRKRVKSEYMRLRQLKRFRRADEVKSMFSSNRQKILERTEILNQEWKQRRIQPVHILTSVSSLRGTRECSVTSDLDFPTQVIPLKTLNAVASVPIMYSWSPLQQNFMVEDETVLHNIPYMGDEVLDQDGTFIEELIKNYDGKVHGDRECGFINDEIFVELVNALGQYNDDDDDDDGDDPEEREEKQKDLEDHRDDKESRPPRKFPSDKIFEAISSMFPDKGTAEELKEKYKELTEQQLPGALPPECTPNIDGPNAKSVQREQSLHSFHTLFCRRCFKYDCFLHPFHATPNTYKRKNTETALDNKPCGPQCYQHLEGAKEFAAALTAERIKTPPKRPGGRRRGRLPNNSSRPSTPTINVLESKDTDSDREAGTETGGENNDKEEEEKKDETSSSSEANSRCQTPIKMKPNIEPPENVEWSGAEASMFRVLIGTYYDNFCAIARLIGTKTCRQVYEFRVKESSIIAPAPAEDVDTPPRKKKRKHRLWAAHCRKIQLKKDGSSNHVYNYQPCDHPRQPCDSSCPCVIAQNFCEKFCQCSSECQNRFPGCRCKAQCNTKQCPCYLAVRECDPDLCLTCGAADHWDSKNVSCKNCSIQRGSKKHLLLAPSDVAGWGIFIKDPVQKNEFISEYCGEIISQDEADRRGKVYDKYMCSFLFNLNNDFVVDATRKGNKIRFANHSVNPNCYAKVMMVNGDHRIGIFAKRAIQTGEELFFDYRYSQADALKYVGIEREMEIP
Sequence of EZH2 (Core Histone) (O75530 whole entry partner): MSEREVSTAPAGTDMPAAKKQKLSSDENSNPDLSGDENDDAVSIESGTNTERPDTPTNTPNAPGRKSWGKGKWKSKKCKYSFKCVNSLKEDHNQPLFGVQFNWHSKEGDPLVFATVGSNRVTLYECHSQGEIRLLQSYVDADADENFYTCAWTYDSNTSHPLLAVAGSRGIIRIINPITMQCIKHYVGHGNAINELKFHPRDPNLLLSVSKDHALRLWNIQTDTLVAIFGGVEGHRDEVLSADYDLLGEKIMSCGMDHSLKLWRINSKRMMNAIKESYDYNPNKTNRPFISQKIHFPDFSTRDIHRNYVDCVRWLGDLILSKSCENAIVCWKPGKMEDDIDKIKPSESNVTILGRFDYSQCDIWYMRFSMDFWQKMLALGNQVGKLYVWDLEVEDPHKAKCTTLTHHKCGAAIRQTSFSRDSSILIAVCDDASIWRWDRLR
Sequence of EZH2 (Core Histone) (Q15022 whole entry partner): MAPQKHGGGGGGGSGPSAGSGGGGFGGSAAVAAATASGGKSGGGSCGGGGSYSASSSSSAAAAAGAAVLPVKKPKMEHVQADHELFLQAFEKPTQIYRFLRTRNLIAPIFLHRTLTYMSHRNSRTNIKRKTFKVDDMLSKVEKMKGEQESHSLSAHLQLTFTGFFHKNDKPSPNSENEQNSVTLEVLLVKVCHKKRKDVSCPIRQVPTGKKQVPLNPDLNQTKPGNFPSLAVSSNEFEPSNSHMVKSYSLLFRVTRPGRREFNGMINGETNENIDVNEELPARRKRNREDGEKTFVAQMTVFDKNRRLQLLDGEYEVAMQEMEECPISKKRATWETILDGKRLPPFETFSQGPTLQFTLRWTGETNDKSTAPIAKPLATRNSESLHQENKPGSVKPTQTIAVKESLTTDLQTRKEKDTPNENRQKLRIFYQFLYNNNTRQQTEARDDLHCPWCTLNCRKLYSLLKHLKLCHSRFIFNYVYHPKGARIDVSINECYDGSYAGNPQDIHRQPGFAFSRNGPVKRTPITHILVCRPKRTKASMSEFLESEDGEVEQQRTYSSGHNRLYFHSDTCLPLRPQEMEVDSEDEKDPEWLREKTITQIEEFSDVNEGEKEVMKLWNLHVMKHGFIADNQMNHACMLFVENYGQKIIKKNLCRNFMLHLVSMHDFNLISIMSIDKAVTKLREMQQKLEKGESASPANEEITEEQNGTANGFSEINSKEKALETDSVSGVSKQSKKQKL
Sequence of EZH2 (Core Histone) (Q09028 whole entry partner): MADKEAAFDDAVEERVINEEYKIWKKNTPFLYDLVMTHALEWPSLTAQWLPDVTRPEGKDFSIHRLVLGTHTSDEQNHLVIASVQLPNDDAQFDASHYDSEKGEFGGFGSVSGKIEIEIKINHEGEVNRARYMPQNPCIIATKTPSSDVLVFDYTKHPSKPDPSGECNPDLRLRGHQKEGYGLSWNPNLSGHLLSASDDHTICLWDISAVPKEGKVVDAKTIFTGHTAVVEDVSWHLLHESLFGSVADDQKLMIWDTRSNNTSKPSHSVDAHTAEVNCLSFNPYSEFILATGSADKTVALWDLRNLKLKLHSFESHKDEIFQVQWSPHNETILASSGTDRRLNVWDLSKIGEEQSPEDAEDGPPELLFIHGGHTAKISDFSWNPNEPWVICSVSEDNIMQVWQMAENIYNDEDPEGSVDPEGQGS
Sequence of EZH2 (Core Histone) (Q6ZN18 whole entry partner): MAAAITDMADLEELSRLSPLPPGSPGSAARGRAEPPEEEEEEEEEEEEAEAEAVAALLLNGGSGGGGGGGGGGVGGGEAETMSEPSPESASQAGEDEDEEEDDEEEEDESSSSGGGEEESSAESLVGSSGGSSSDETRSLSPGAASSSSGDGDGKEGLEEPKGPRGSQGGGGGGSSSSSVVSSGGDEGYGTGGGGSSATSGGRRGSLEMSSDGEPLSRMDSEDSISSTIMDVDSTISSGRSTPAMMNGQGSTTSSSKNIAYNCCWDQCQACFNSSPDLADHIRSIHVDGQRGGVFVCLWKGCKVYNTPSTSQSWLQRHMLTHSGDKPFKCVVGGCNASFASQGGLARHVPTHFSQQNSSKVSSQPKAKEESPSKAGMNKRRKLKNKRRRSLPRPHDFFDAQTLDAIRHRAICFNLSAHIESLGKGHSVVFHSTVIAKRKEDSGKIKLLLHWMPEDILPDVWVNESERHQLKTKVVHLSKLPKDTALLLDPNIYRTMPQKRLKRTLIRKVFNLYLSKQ

Consider `CCNC(=O)c1noc(-c2cc(C(C)C)c(O)cc2O)c1-c1ccc(CN2CCOCC2)cc1` [AUY922], for which the “mRNA and protein expression of EGFR, PDGFRA, CDK4, and NF1” value in data set [1] (heterogeneous GBM cells) is listed as “Reduction”. Besides, the “anti-GBM effect in GBM cells” value in data set [1] is “led to GBM cell death via apoptosis and autophagy”.

In the case of `COc1c(C)cnc(Cn2cnc3c(Cl)nc(N)nc32)c1C` [BIIB021], the “resistance to molecular targeted therapy” value in data set [2] is “overcome resistance to molecular targeted therapy”.

On to `CCN(c1cc(-c2ccc(NC(=O)c3cc(C(C)C)c(O)cc3O)cc2)cc(C(=O)NCc2c(C)cc(C)[nH]c2=O)c1C)C1CCOCC1` [Compound 1, 4′-(2,4-dihydroxy-5-isopropylbenzamido)-N-((4,6-dimethyl-2-oxo-1,2-dihydropyridin-3-yl)methyl)-5-(ethyl(tetrahydro-2H-pyran-4-yl)amino)-4-methyl-[1,1′-biphenyl]-3-carboxamide], for which, in data set [3], the IC50 amounted to 6.14 nM. For the same compound, the “HSP90 inhibitory potential in words” value in data set [4] is recorded as “devoid of HSP90 inhibitory potential”. For the same compound, in data set [5], the “cell growth / viability inhibitory effect in words” value is given as “unable to exert cell growth inhibitory effects” and the half-maximal inhibitory concentration (IC50) is more than 79800 nM.

As for `CCN(c1cc(-c2cccc(NC(=O)c3cc(C(C)C)c(O)cc3O)c2)cc(C(=O)NCc2c(C)cc(C)[nH]c2=O)c1C)C1CCOCC1` [Compound 2, 3′-(2,4-dihydroxy-5-isopropylbenzamido)-N-((4,6-dimethyl-2-oxo-1,2-dihydropyridin-3-yl)methyl)-5-(ethyl(tetrahydro-2H-pyran-4-yl)amino)-4-methyl-[1,1′-biphenyl]-3-carboxamide], in data set [3], the midpoint of inhibition, the IC50, lay at 2.06 nM. Besides, the “potency in inhibiting EZH2 relative to compound 1” value in data set [3] (compound 2 (3′) vs counterpart 1 (4′)) was found to be 3 fold. Besides, in data set [4], the “HSP90 inhibitory potential in words” value is reported as “devoid of HSP90 inhibitory potential”. Also, in data set [5], the “cell growth / viability inhibitory effect in words” value was “unable to exert cell growth inhibitory effects” and the IC50 was more than 79800 nM.

As to `CCN(c1cc(-c2ccc(N(C)C(=O)c3cc(C(C)C)c(O)cc3O)cc2)cc(C(=O)NCc2c(C)cc(C)[nH]c2=O)c1C)C1CCOCC1` [Compound 3, 4′-(2,4-dihydroxy-5-isopropyl-N-methylbenzamido)-N-((4,6-dimethyl-2-oxo-1,2-dihydropyridin-3-yl)methyl)-5-(ethyl(tetrahydro-2H-pyran-4-yl)amino)-4-methyl-[1,1′-biphenyl]-3-carboxamide], inhibition in data set [3] was half-maximal at 7.21 nM (IC50). In addition, in data set [4], the “HSP90 inhibitory potential in words” value is “conferred HSP90 inhibitory potential” and the IC50 was determined as 343 nM. Further, in data set [5], the “cell growth / viability inhibitory effect in words” value is “the only ones to exert cell viability inhibitory potential” and the IC50 worked out at 27400 nM.

`CCN(C(=O)c1cc(C(C)C)c(O)cc1O)c1ccc(-c2cc(C(=O)NCc3c(C)cc(C)[nH]c3=O)c(C)c(N(CC)C3CCOCC3)c2)cc1` [Compound 4, N-((4,6-dimethyl-2-oxo-1,2-dihydropyridin-3-yl)methyl)-5-(ethyl(tetrahydro-2H-pyran-4-yl)amino)-4′-(N-ethyl-2,4-dihydroxy-5-isopropylbenzamido)-4-methyl-[1,1′-biphenyl]-3-carboxamide] yielded an IC50 in data set [3] of 7.35 nM. In addition, in data set [4], the “HSP90 inhibitory potential in words” value was “conferred HSP90 inhibitory potential” and the midpoint of inhibition, the IC50, lay at 823 nM.

Regarding `CCCN(C(=O)c1cc(C(C)C)c(O)cc1O)c1ccc(-c2cc(C(=O)NCc3c(C)cc(C)[nH]c3=O)c(C)c(N(CC)C3CCOCC3)c2)cc1` [Compound 5, 4′-(2,4-dihydroxy-5-isopropyl-N-propylbenzamido)-N-((4,6-dimethyl-2-oxo-1,2-dihydropyridin-3-yl)methyl)-5-(ethyl(tetrahydro-2H-pyran-4-yl)amino)-4-methyl-[1,1′-biphenyl]-3-carboxamide], the IC50 is 21.8 nM in data set [3] and more than 79800 nM in data set [5]. In data set [4], the “HSP90 inhibitory potential in words” value is reported as “could not replicate the activity-conferring trends”.

As to `CCN(c1cc(-c2ccc(N(Cc3ccccc3)C(=O)c3cc(C(C)C)c(O)cc3O)cc2)cc(C(=O)NCc2c(C)cc(C)[nH]c2=O)c1C)C1CCOCC1` [Compound 6, 4′-(N-benzyl-2,4-dihydroxy-5-isopropylbenzamido)-N-((4,6-dimethyl-2-oxo-1,2-dihydropyridin-3-yl)methyl)-5-(ethyl(tetrahydro-2H-pyran-4-yl)amino)-4-methyl-[1,1′-biphenyl]-3-carboxamide], the values for the IC50 in data set [3] and in data set [5] were 11.7 nM and more than 79800 nM, respectively. Besides, in data set [4], the “HSP90 inhibitory potential in words” value was “could not replicate the activity-conferring trends”.

In turn, `CCN(C(=O)c1cc(C(C)C)c(O)cc1O)c1cccc(-c2cc(C(=O)NCc3c(C)cc(C)[nH]c3=O)c(C)c(N(CC)C3CCOCC3)c2)c1` [Compound 8, N-((4,6-dimethyl-2-oxo-1,2-dihydropyridin-3-yl)methyl)-5-(ethyl(tetrahydro-2H-pyran-4-yl)amino)-3′-(N-ethyl-2,4-dihydroxy-5-isopropylbenzamido)-4-methyl-[1,1′-biphenyl]-3-carboxamide] returned an IC50 in data set [3] of 36.6 nM. Besides, in data set [4], the “HSP90 inhibitory potential in words” value is on record as “conferred HSP90 inhibitory potential” and the IC50 is 63.6 nM. In data set [5], the “cell growth / viability inhibitory effect in words” value is listed as “the only ones to exert cell viability inhibitory potential” and the IC50 amounted to 10800 nM.

For the compound `CCCN(C(=O)c1cc(C(C)C)c(O)cc1O)c1cccc(-c2cc(C(=O)NCc3c(C)cc(C)[nH]c3=O)c(C)c(N(CC)C3CCOCC3)c2)c1` [Compound 9, 3′-(2,4-dihydroxy-5-isopropyl-N-propylbenzamido)-N-((4,6-dimethyl-2-oxo-1,2-dihydropyridin-3-yl)methyl)-5-(ethyl(tetrahydro-2H-pyran-4-yl)amino)-4-methyl-[1,1′-biphenyl]-3-carboxamide], the IC50 was 40.1 nM in data set [3], 9330 nM in data set [4] and more than 79800 nM in data set [5]. In addition, in data set [4], the “HSP90 inhibitory potential in words” value is reported as “could not replicate the activity-conferring trends”. In addition, the “cell growth / viability inhibitory effect in words” value in data set [5] was “unable to exert cell growth inhibitory effects”.

`CCN(c1cc(-c2cccc(N(Cc3ccccc3)C(=O)c3cc(C(C)C)c(O)cc3O)c2)cc(C(=O)NCc2c(C)cc(C)[nH]c2=O)c1C)C1CCOCC1` [Compound 10, 3′-(N-benzyl-2,4-dihydroxy-5-isopropylbenzamido)-N-((4,6-dimethyl-2-oxo-1,2-dihydropyridin-3-yl)methyl)-5-(ethyl(tetrahydro-2H-pyran-4-yl)amino)-4-methyl-[1,1′-biphenyl]-3-carboxamide] gave an IC50 in data set [3] of 641 nM. In data set [4], the “HSP90 inhibitory potential in words” value is “could not replicate the activity-conferring trends” and inhibition was half-maximal at 2840 nM (IC50). Moreover, in data set [5], the “cell growth / viability inhibitory effect in words” value was “unable to exert cell growth inhibitory effects” and the IC50 is more than 79800 nM.

On to `CC(C)c1cc(-c2n[nH]c(=O)n2-c2ccc3c(ccn3C)c2)c(O)cc1O` [STA9090], for which the “cytotoxicity / cell growth inhibition against GBM cell lines” value in data set [6] is reported as “moderate cytotoxicity”. Besides, in data set [6] (single agent vs combination with Tazemetostat), the “cell growth inhibitory effects relative to the cocktail” value is “several fold less than that observed with the cocktail”.

On to `CCN(c1cc(-c2ccc(CN3CCOCC3)cc2)cc(C(=O)NCc2c(C)cc(C)[nH]c2=O)c1C)C1CCOCC1` [Tazemetostat], for which, in data set [5], the “cell growth / viability inhibitory effect in words” value is “unable to exert cell growth inhibitory effects”. In data set [6], the anti-GBM efficacy result was “did not exhibit anti-GBM efficacy”. In addition, the “cytotoxicity / cell growth inhibition against GBM cell lines” value in data set [6] (listed as tazemetosat) is “cytotoxicity-devoid trends”; in data set [6] (listed as tazemetostat (I)) it was “could not exert cell growth inhibitory potential against the GBM cell lines”.

As to `O=C1C=C(Nc2ccc3cnccc3c2)c2ccccc2C1=O` [YZ129], the “anti-GBM effect in GBM cells” value in data set [1] is “promoted apoptosis and exerted GBM cell cycle arrest at the G2/M phase, inhibiting tumour cell proliferation and migration”.
